According to patent publication US8889733B2, “Artonin I to treat resistant infectious Staphylococcus aureus” (priority 2013, dated 2014):
Read-outs that look alike come from different tables or passages of the source.

Columns and labels:
Clinical Isolates [1] = test: Reversal of Multi-Drug Resistance (MIC/FIC of antibiotics combined with compound 1); type: cell-based, Staphylococcus aureus; settings: for MIC: Staphylococcus aureus; for FIC (s): FIC (a) + FIC (b), antibiotic plus Compound 1; for FIC (b): FIC of Compound 1 in combination with the antibiotic named as label; for FIC (a): FIC of the antibiotic = MIC in combination with Compound 1 / MIC alone
Protocol: (§1) Assay Protocol: Protocol of Chung et al, (2001), with slight modifications, was followed. 5×10 MDR S. aureus cells were treated with 20 μg/mL of test compounds and incubated for 20 hours. Control cells were not exposed to any test compound and antibiotic. In 96-well plate, increasing concentration of antibiotics, along with the fixed concentration of test compounds were added. Inoculum of 5×10^5 cells was applied to all wells. The presence or absence of growth in all combination wells were noted visually and by using the dye Alamar blue.
(§2) Fractional inhibitory concentrations were calculated by the above cited formulae. • FIC of Antibiotic a (FICa)=MIC of Antibiotic a in combination/MIC of antibiotic a alone • FIC of Compound b (FICb)=MIC of Compound b in combination/MIC of compound b alone
(§3) The sum of Fractional Inhibitory Concentration (FICs) index of: (FICa)+(FICb)=(FICs)

EMRSA-17 [2] = test: as above; type: cell-based, Staphylococcus aureus; settings: for FIC (s): FIC (a) + FIC (b), antibiotic plus Compound 1; for FIC (b): FIC of Compound 1 in combination with the antibiotic named as label; for MIC: Staphylococcus aureus; for FIC (a): FIC of the antibiotic = MIC in combination with Compound 1 / MIC alone
Protocol: as §1, §2, §3

Clinical Isolates [3] = test: High throughput screening assay (MABA) against MDR S. aureus; type: cell-based; settings: Staphylococcus aureus, 20 μg/mL, 20 hours, Alamar Blue
Protocol: (§4) High throughput screening assay (MABA) against MDR S. aureus:
(§5) Inocula Preparation: Isolated colonies of S. aureus were picked and inoculated into Muller Hinton broth and incubated at 37° C. for 20 hours. After 20 hours, the turbidity was checked and adjusted to 0.5 McFarland standards.
(§6) Assay Protocol: Assays were performed according to method reported by Sarkar et al. (2007) with slight modifications. Flat bottom, polystyrene, non-tissue culture treated, sterile 96-well micro titer plates were used with proper labeling. Stock solutions of test compounds 1 and 2 were prepared in DMSO with the concentration of 1 mg/mL. 4 μL from stock solutions were distributed in each well, except the control wells of the plate. Two fold serial dilutions using sterile broth were made with the final volume of […], in each well. The bacterial suspensions (cone 5×10^5) were then added in each wells. The plate was sealed by parafilm and incubated at 37° C. for 20 hours. The plates were prepared in triplicate. Next day, 10% Alamar Blue Dye was added to the culture and kept on shaking incubator at 37° C. for 3 to 4 hours. The color change was then assessed visually, qualitatively and quantitatively by recording absorbance at 570 and 600 nm by a spectrophotometer. The percentage inhibition of compound 1 and 2 against EMRSA-16, and 17, MRSA-252 and clinical isolate by MABA assays are given in Table 1.
(§7) Percentage reduction and inhibition of Alamar blue dye was calculated by using the following formula.
(§8) Here control wells contain only media plus Alamar Blue, while the test wells contains both Alamar Blue with the test compounds.

EMRSA-16 = test: as above; type: cell-based; settings: Staphylococcus aureus, 20 μg/mL, 20 hours, Alamar Blue
Protocol: as §4, §5, §6, §7, §8

EMRSA-17 [4] = test: as above; type: cell-based; settings: Staphylococcus aureus, 20 μg/mL, 20 hours, Alamar Blue
Protocol: as §4, §5, §6, §7, §8

MRSA-252 = test: as above; type: cell-based; settings: Staphylococcus aureus, 20 μg/mL, 20 hours, Alamar Blue
Protocol: as §4, §5, §6, §7, §8

EMRSA-17 [5] = test: Membrane potential and integrity, DiBAC4(3) flow cytometry; type: cell-based, Staphylococcus aureus; settings: 20 μg/mL, 20 hrs, flow cytometry FL1
Protocol: (§9) Compound Treatment: 5×10^5 MDR S. aureus cells were treated with 20 μg/mL of test compounds and incubated for 20 hours, while the control cells were incubated without test compound.
(§10) Cell Staining: Staining procedure of Jepras et al. (1997) was adapted with slight modifications. Stock solutions (1 mg/mL) for the membrane potential probe DiBAC4(3) were made in absolute ethanol and stored at −20 ° C. […] Samples (1 mL) of exponentially growing S. aureus were taken from broth cultures. Samples were centrifuged at 11,000 rpm for 2 min and the supernatant was discarded. Cell pellets were resuspended in 4 mL of filtered phosphate-buffered saline (PBS). Fluorogenic substrates DiBAC4(3) were added to the cell suspensions to obtain a final concentration of 10 μg/mL. The suspensions were then incubated at 37° C. for 30 min. Cells were washed by centrifugation in the PBS buffer and then analyzed by flow cytometry.
(§11) Flow cytometry data acquisition: The flow cytometric assay was performed on a Becton Dickinson FACSCaliber™ flow cytometer. A total of 50,000 cells were counted by using Cell Quest software (BD) for data acquisition and analysis. The emission maximum of DiBAC4(3) was at 516 nm and its green fluorescence was detected in the channel FL1 (Veal et al., 2000).

clinical isolate = test: as above; type: cell-based, Staphylococcus aureus; settings: 20 μg/mL, 20 hrs, flow cytometry FL1
Protocol: as §9, §10, §11

[6] = system: MDR Efflux Pumps of EMRSA-17; test: EtBr accumulation/efflux flow cytometry assay; type: cell-based, Staphylococcus aureus; settings: compound 1 in combination with antibiotics, 3 hrs, FL2
Protocol: (§12) Assay Protocol: Protocol of Kalle et al, (2009) was employed with some modifications. Control cells were not exposed with any test compound or antibiotic. Combination of test compound and antibiotics were incubated for 3 hrs in test cells. Ethiduim bromide (EtBr) was added in to the Eppendorff, containing the combination of both drugs and compound. Cells with the drugs were also incubated and stained with EtBr. Control and treated samples were centrifuged for 3 min at 13,000 rpm. Supernatant was […] and the pallet was washed with PBS. Positive control contains ethidium bromide, while negative control was EtBr free. Flow cytometric analysis was carried out done by using the FL2 channel.
(§13) Flow cytometry data acquisition: The flow cytometric assay was performed. A total of 50,000 cells were counted by using Cell Quest software (BD) for data acquisition and analysis. EtBr was excited at 488 nm and the fluorescence detected through a 585 nm filter (FL-2 channel).

[7] = system: MDR Efflux Pumps of clinical isolates; test: EtBr accumulation/efflux flow cytometry assay; type: cell-based, Staphylococcus aureus; settings: compound 1 in combination with antibiotics, 3 hrs, FL2
Protocol: as §12, §13

Clinical Isolates [8] = test: Lucigenin CL assay of Reactive Oxygen Species (O2-) production; type: cell-based, Staphylococcus aureus; settings: different concentrations, RLU
Protocol: (§14) Assay Protocol: Protocol of Albesa et al (2002) was followed with slight modifications. 5×10^5 Cells were treated with the different concentrations of test compounds. Cells with compounds were incubated with leueigenin and filtered phosphate buffer saline. DMSO was added to the each well at the time of RLU determination to trigger the reaction. […] Positive control contains DMSO, but not the test compound. Determination by chemiluminescence (CL) was performed at room temperature by luminometer. The light emission results were measured in relative light unit (RLU).

EMRSA-17 [9] = test: as above; type: cell-based, Staphylococcus aureus; settings: different concentrations, RLU
Protocol: as §14

[10] = antibiotic in combination with Compound 1
[11] = antibiotic in combination with Compound 1, listed as clindamycin
[12] = antibiotic alone, read-out: MIC (a)
[13] = Compound 1 alone, read-out: MIC (b)

Compound | Effect (Clinical Isolates [1]; [10]) | MIC (a + b) (Clinical Isolates [1]; [10]) | FIC (s) (EMRSA-17 [2]) | FIC (b) (EMRSA-17 [2]) | MIC (a) (EMRSA-17 [2]; antibiotic alone) | Effect (EMRSA-17 [2]; [10]) | MIC (a + b) (EMRSA-17 [2]; [10]) | MIC (Clinical Isolates [1]; [12]) | MIC (EMRSA-17 [2]; [12]) | also measured
CCC[C@@H]1C[C@@H](C(=O)N[C@@H]([C@H]2O[C@H](SC)[C@H](O)[C@@H](O)[C@H]2O)[C@H](C)Cl)N(C)C1 [Clindamicin] | Synergistic | 16 µg/mL | 0.322 | 0.32 | 4096 µg/mL | Synergistic | 8 µg/mL | – | – | MIC (a) (Clinical Isolates [1]; antibiotic alone): 4096 µg/mL; Effect (Clinical Isolates [1]; [11]): partial synergistic activity; MIC (a + b) (Clinical Isolates [1]; [11]): 8 µg/mL; MIC (a) (EMRSA-17 [2]; antibiotic alone, listed as clindamycin): 1024 µg/mL
NCC[C@H](O)C(=O)N[C@@H]1C[C@H](N)[C@@H](O[C@H]2O[C@H](CN)[C@@H](O)[C@H](O)[C@H]2O)[C@H](O)[C@H]1O[C@H]1O[C@H](CO)[C@@H](O)[C@H](N)[C@H]1O [Amikacin] | Partial | – | 0.351 | 0.32 | – | Synergistic | 8 µg/mL | 128 µg/mL | – | –
O=C(O)c1cn(C2CC2)c2cc(N3CCNCC3)c(F)cc2c1=O [Ciprofloxacin] | – | – | 0.164 | 0.16 | – | Synergistic | 4 µg/mL | – | – | –
Cc1onc(-c2ccccc2)c1C(=O)N[C@@H]1C(=O)N2[C@@H]1SC(C)(C)[C@@H]2C(=O)O [Oxacillin] | Synergistic | – | 0.0809 | 0.08 | – | Synergistic | 2 µg/mL | 2080 µg/mL | 4100 µg/mL | –
Gentamicin | Synergistic | 8 µg/mL | 0.164 | 0.16 | 512 µg/mL | Synergistic | 4 µg/mL | – | – | FIC (s) (Clinical Isolates [1]): 0.3356; FIC (b) (Clinical Isolates [1]): 0.320; FIC (a) (Clinical Isolates [1]): 0.0156; MIC (a) (Clinical Isolates [1]; antibiotic alone): 512 µg/mL; FIC (a) (EMRSA-17 [2]): 0.0039
Cc1cc(NS(=O)(=O)c2ccc(N)cc2)no1 [Sulfamethoxazole] | Synergistic | – | 0.324 | 0.32 | – | Synergistic | 8 µg/mL | 2050 µg/mL | 2080 µg/mL | –
Penicillin | Synergistic | 8 µg/mL | 0.164 | 0.16 | 2084 µg/mL | Synergistic | 4 µg/mL | – | – | FIC (s) (Clinical Isolates [1]): 0.3238; FIC (b) (Clinical Isolates [1]): 0.320; FIC (a) (Clinical Isolates [1]): 0.0038; MIC (a) (Clinical Isolates [1]; antibiotic alone): 2084 µg/mL; FIC (a) (EMRSA-17 [2]): 0.0039
Neomycin | Synergistic | 8 µg/mL | 0.336 | 0.32 | 512 µg/mL | Synergistic | 8 µg/mL | – | – | FIC (b) (Clinical Isolates [1]): 0.320; FIC (a) (Clinical Isolates [1]): 0.0078; FIC (a) (EMRSA-17 [2]): 0.1562; MIC (a) (EMRSA-17 [2]; antibiotic alone, listed as neomycin): 256 µg/mL
CC[C@H]1OC(=O)[C@H](C)[C@@H](O[C@H]2C[C@@](C)(OC)[C@@H](O)[C@H](C)O2)[C@H](C)[C@@H](O[C@@H]2O[C@H](C)C[C@H](N(C)C)[C@H]2O)[C@](C)(O)C[C@@H](C)C(=O)[C@H](C)[C@@H](O)[C@]1(C)O [Erythromycin] | Synergistic | 8 µg/mL | 0.324 | 0.32 | – | Synergistic | 8 µg/mL | 2050 µg/mL | 1020 µg/mL | –
CC(C)=CCc1c(O)ccc(C(=O)[C@@H]2C(c3ccc(O)cc3O)CC(C)=C[C@@H]2c2c(O)cc3oc(-c4ccc(O)cc4O)cc(=O)c3c2O)c1O (stereo partly shown) [Compound 1, artonin I] | – | – | – | – | – | – | – | – | – | inhibition at 20 µg/mL (Clinical Isolates [3]): 88.9%; inhibition at 20 µg/mL (EMRSA-16): 88.7%; inhibition at 20 µg/mL (EMRSA-17 [4]): 91.1%; inhibition at 20 µg/mL (MRSA-252): 69.4%; MIC (Clinical Isolates [1]; [13]): 25 µg/mL; MIC (EMRSA-17 [2]; [13]): 25 µg/mL; membrane potential and integrity, DiBAC4(3) fluorescence (EMRSA-17 [5]): majority of population was shifted in a rapid regular pattern due to the change in membrane potential; membrane potential and integrity, DiBAC4(3) fluorescence (clinical isolate): bulky peaks steadily moved towards the area of increasing fluorescence; efflux activity, EtBr accumulation [6]: decrease in the efflux activity was observed; efflux activity, EtBr accumulation [7]: decrease in the efflux activity was observed; production of O2- (ROS), lucigenin chemiluminescence (Clinical Isolates [8]): more production of O2^− was observed; production of O2- (ROS), lucigenin chemiluminescence (EMRSA-17 [9]): more production of O2^− was observed
O=C(N[C@H](CO)[C@H](O)c1ccc([N+](=O)[O-])cc1)C(Cl)Cl [Chloramphenicol] | Synergistic | 8 µg/mL | 0.328 | 0.32 | – | Synergistic | 8 µg/mL | 1020 µg/mL | 1020 µg/mL | –
[H]/N=C(/N)N[C@H]1[C@H](O)[C@@H](O)[C@H](O[C@@H]2O[C@@H](C)[C@](O)(C=O)[C@H]2O[C@@H]2O[C@@H](CO)[C@H](O)[C@@H](O)[C@@H]2NC)[C@@H](N/C(N)=N\[H])[C@@H]1O [Streptomycin] | Synergistic | – | 0.647 | 0.64 | – | Partial | 16 µg/mL | 2050 µg/mL | 2080 µg/mL | Effect (EMRSA-17 [2]; antibiotic in combination with Compound 1, listed as streptomycin): partial synergistic effect
